Measurements published in patent US10890588B2, “Compositions and methods for detecting cancer cells in a tissue sample” (ISI Life Sciences, Inc., priority 2016, dated 2021).

Assays:
Assay type in all cases: cell-based
[1] = tested on: SDOV3 cells (an ovarian cancer cell line); assay: Detection of ovarian cancer cells: absorption and intracellular deacylation to a fluorescent structure, fluorescence microscopy; conditions: folate-free medium (no FBS), washed with HBSS, 20× immersion objective
Procedure: Compound 24 and comparative compound A were evaluated for their ability to be absorbed by cancer cells and then, in the case of compound 24, deacylated by intracellular esterases so as to regenerate a fluorescent structure. Specifically, approximately 500,000 SDOV3 cells (an ovarian cancer cell line) were seeded into separate 35 mm culture dishes containing a folate-free growth medium (RPMI+10% FBS). The next day, the medium was replaced with a folate-free medium (no FBS). In one culture dish, the medium was supplemented with 25 micromolar of compound 24; and, in another culture dish, the medium was supplemented with 50 micromolar of comparative compound A. After incubation, the cells were washed with HBSS (Hank's balanced salt solution) to remove unbound compound. The cells were then imaged with a 20× immersion objective on a standard upright fluorescent microscope. […] FIG. 1 illustrates a picture showing the fluorescence generated. Note that only the cancer cells evidenced fluorescence and that the solution remained non-fluorescent. […] This evidences that that composition was not suitable for use in the methods described herein.

[2] = target: T1, folate binding protein (folate receptor) on SKOV3 cells (Homo sapiens, UniProt P15328); assay: Folate competition: labeling of ovarian cancer cells via the folic acid receptor; conditions: 10 μM compound alone vs 10 μM + 1 mM folate (100×)
T1 construct: endogenous in cells; host or cells: SKOV3 cells
Procedure: This example establishes that compound 24 is specific for the folate receptor. Specifically, compound 24 was used in a folate free medium and in a medium using excess folate that competed with compound 24. The rationale is that in the presence of excess folate, compound 24 would have to compete for binding to the folate binding protein and therefore there would be less signal than when compound 24 was the sole source of folate.
To test this hypothesis, SKOV3 cells were incubated with 10 μM of compound 24 or with 10 μM of compound 24+1 mM folate (100×s). Cells were then washed and imaged as before.
All images were analyzed using exactly the same parameters. Mean intensity was measured from identical regions with in each image. […] These images establish that compound 24 binds to cells through the folate binding protein and not by some other route.

[3] = tested on: SKOV3 cells; assay: Dose response of fluorescence generated in SKOV3 cells; conditions: 1 hour; for Mean intensity: SKOV3 cells, RPMI + 0.25% BSA, image J
Procedure: This experiment establishes that compound 24 provides a dose response relative to the fluorescence generated. Specifically, SKOV3 cells were incubated with 10 μM, 25 μM, or 50 μM of compound 24 in RPMI supplemented with 0.25% BSA. Cells were incubated for 1 hour then washed with HBSS and imaged as before.
All images were analyzed using exactly the same parameters using the image J software suite. Mean intensity was measured from identical regions with in each image. […] While BSA was used as a supplement, acylated BSA may be more practical.

[4] = tested on: MCF7 cells, a breast cancer cell line that expresses folate binding protein; assay: Labeling of MCF7 cells (correlation between folic acid receptors and fluorescence intensity); conditions: MCF cells, 10 uM, one hour, folate-free RPMI, no FBS
Procedure: In this experiment, the procedures set forth above were repeated with the exception that SKOV3 cells were replaced with MCF7 cells—a breast cancer cell line that expresses folate binding protein albeit at a level lower than that of the SKOV3 cells. […] However, the fluorescent intensity generated by the MCF7 cells was less than that generated by SKOV3 cells.
Specifically, MCF cells were labeled at 10 uM with compound 24 for one hour in folate-free RPMI, no FBS. Cells were washed and imaged.

T1 sequence (P15328 25-234): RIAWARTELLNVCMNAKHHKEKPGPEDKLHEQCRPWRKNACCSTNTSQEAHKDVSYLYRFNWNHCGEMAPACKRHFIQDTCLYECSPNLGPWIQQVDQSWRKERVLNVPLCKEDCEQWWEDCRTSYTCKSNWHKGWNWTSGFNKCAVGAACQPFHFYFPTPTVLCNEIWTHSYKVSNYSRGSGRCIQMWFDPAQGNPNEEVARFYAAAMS

Row | Compound | fluorescent signal of cancer cells after incubation ([1]; 25 micromolar) | competition by excess folate for labeling ovarian cancer cells [2] | Mean intensity ([3]; 10 μM) | Mean intensity ([3]; 25 μM) | Mean intensity ([3]; 50 μM) | dose response in labeling cells ([3]; SKOV3 cells, 10, 25, 50 μM) | labeling of cells (fluorescence) [4] | fluorescent signal of cancer cells after incubation ([1]; 50 micromolar)
1 | O,O′-(5-(3-(4-((4-(4-(((2-amino-4-oxo-3,4-dihydropteridin-6-yl)methyl)amino)benzamido)-5-methoxy-5-oxopentanamido)methyl)phenyl)thioureido)-3-oxo-3H-spiro[isobenzofuran-1,9′-xanthene]-3′,6′-diyl) bis)(2-methoxyethyl) Disuccinate [compound 24] | clear, consistent and unambiguous | folate competes with compound 24 | 312.8 | 360.4 | 545.5 | clear dose response | labeling is faint | 
2 | Nc1nc2ncc(CNc3ccc(C(=O)NC(CCC(=O)NCCCCCNC(=O)c4cccc(-c5c6ccc(=O)cc-6oc6cc(O)ccc56)c4C(=O)O)C(=O)O)cc3)nc2c(=O)[nH]1 (centres unmarked) [comparative compound A, reference compound] |  |  |  |  |  |  |  | showed a burst of fluorescence but immediately the fluorescence was bleached
